Laboratory results published in BindingDB's records for doi:10.1021/jm000455z (Kissei Pharmaceutical, 2001).

Experiment: Agonistic activity towards beta-3 adrenoceptor. Mean concentration required to produce 50% relaxation of detrusor before the addition in the ferret detrusor

C[C@H](NCCc1ccc(NCC(=O)O)c(Cl)c1)[C@H](O)c1ccc(O)cc1
EC50: 0.933 nM

C[C@H](NCCc1cc(Cl)c(NCC(=O)O)cc1Cl)[C@H](O)c1ccc(O)cc1
EC50: 61.7 nM

C[C@H](NCCc1ccc(NCC(=O)O)cc1)[C@H](O)c1ccc(O)cc1
EC50: 24 nM

C[C@H](NCCc1ccc(NC(C)(C)C(=O)O)cc1Cl)[C@H](O)c1ccc(O)cc1
EC50: 5.62 nM

C[C@H](NCCc1cc(Br)c(NCC(=O)O)c(Br)c1)[C@H](O)c1ccc(O)cc1
EC50: 81.3 nM

C[C@H](NCCc1cc(Cl)c(N(C)CC(=O)O)c(Cl)c1)[C@H](O)c1ccc(O)cc1
EC50: 158 nM

C[C@H](NCCc1ccc(NCC(=O)O)c(Br)c1)[C@H](O)c1ccc(O)cc1
EC50: 575 nM

C[C@H](NCCc1ccc(NCC(=O)O)c(Cl)c1Cl)[C@H](O)c1ccc(O)cc1
EC50: 457 nM

C[C@H](NCCc1ccc(NCC(=O)O)cc1Cl)[C@H](O)c1ccc(O)cc1
EC50: 7.24 nM

C[C@H](NCCc1ccc(N(C)CC(=O)O)cc1)[C@H](O)c1ccc(O)cc1
EC50: 52.5 nM

C[C@H](NCCc1ccc(NCC(=O)O)c(I)c1)[C@H](O)c1ccc(O)cc1
EC50: 813 nM

C[C@H](NCCc1ccc(N(C)CC(=O)O)c(Cl)c1)[C@H](O)c1ccc(O)cc1
EC50: 11 nM
